How the values were obtained:
[1] = system: all three parental lines (M229P, M238P, M249P); assay: HSLCI population kinetic response (biomass growth rate); type: cell-based, human; conditions: 5 μM Vemurafenib
Source text: Live Cell Interferometry. The standard and high speed LCI platforms were based on a custom built inverted microscope, coupled to a quantitative phase detecting camera (SID4BIO, Phasics) which consists of a modified Shack-Hartman mask, fitted to a 1600×1200 pixel CCD camera [Imprex B1621]). The phase calculation down samples the raw image to 400×300 pixels, resulting in effective pixel sizes between 1.3 μm and 2.5 μm, depending on the objective. […] In both the standard and high speed systems, position was determined by maximizing contrast during a vertical scan though focus. […]
Image analysis. Raw interferograms were converted to phase images using the manufacturer's software and analyzed with our custom MATLAB script (The MathWorks). […] Using the resulting flattened phase images, single cells segmented from the background using Canny spatial-derivative edge detection algorithms, their locations, and optical volumes were recorded. […] Single cell growth tracks were quality filtered using an upper cutoff of +1-15% uncertainty (s.d. of residuals) in the calculated growth rate, as determined by linear fitting the biomass versus time data. […]

[2] = Peak serum concentration (Cmax) in clinical trials at recommended clinical dose; type: in vivo, human; conditions: 1× dose for the screen
Method: (§1) Kinase inhibitor screen. 1× Dose Determination: For each inhibitor, a 1× dose was calculated. Briefly, recommended clinical doses were obtained from published package inserts. Doses were matched to peak serum concentrations (Cmax (ng/mL)) for each inhibitor as measured in clinical trials in which the recommended doses were utilized. Using each drugs' molecular weight, peak serum concentration values were converted to uM units and designated as 1×. […] Cobimetinib and Binimetinib were supplied as dry powders and suspended in DMSO to a final stock concentration of 10 mM upon receipt. Cell Preparation and Dosing: M249R4 cells were plated in a 24-well optical glass-bottomed plate (Cat. #P24-0-N, Cellvis) at 1×10^4 cells/ml (total of 1 mL in each of 24 wells) in media (DMEM, 10% Fetal Bovine Serum, 2 mM L-Glutamine) containing 1 uM Vemurafenib. Plated cells were allowed to adhere overnight at 37° C., 5% CO2. All cells were washed with 1× phosphate-buffered saline, pH 7.4, and provided with fresh media. Immediately following washing and feeding, cells were dosed with inhibitors at dose-escalating concentrations and incubated under standard cell culture conditions for 24 hours. After incubation, cells were imaged for 10 hours using the HSLCI system.
(§2) These inhibitors target a spectrum of kinases (Table 2). […] For each targeted kinase inhibitor, a 1× dose was calculated to match the peak tolerated serum concentration (Cmax (ng/mL)), as measured in clinical trials. Our first assay screened all seven inhibitors at several concentrations to identify those that elicited the most apparent reduction in cell growth rates.

[3] = at recommended clinical dose, clinical trials; cited from earlier work
[4] = system: M249R4 cells; assay: HSLCI kinase inhibitor screen in Vemurafenib-resistant melanoma; type: cell-based, human
Method: as §1, §2

[5] = second assay, up to 10× concentration

Row | Compound | time by which significant growth rate reduction occurred [1] | uM (1×) (peak serum concentration converted using molecular weight) [2] | Serum Conc. (ng/mL) (peak serum concentration, Cmax) [3] | growth rate response ([4]; first assay, 0.1×) | growth rate response ([4]; second assay, doses greater than 0.1×) | cell killing [4, 5] | dose response [4, 5] | dose response ([4]; first assay) | dose response ([4]; second assay, dosing range 0.05×-1×)
1 | CCCS(=O)(=O)Nc1ccc(F)c(C(=O)c2c[nH]c3ncc(-c4ccc(Cl)cc4)cc23)c1F [Vemurafenib] | ≤ 20 h | 9.80 µM | 4800 ng/mL | – | – | – | – | – | –
2 | CC(C)(C)c1nc(-c2cccc(NS(=O)(=O)c3c(F)cccc3F)c2F)c(-c2ccnc(N)n2)s1 [Dabrafenib] | – | 2.02 µM | 1050 ng/mL | slight reduction in growth rate | reduced growth rates | nor does it kill cells | does not elicit a dose response | – | –
3 | Cn1cnc2c(F)c(Nc3ccc(Br)cc3F)c(C(=O)NOCCO)cc21 [Binimetinib] | – | 0.58 µM | 257.0 ng/mL | – | – | – | – | slight dose response | –
4 | O=C(c1ccc(F)c(F)c1Nc1ccc(I)cc1F)N1CC(O)([C@@H]2CCCCN2)C1 [Cobimetinib] | – | 0.51 µM | 273 ng/mL | – | – | – | – | – | robust dose responses
5 | Cn1cnc2c(F)c(Nc3ccc(Br)cc3Cl)c(C(=O)NOCCO)cc21 [Selumetinib] | – | 2.55 µM | 1165 ng/mL | – | – | – | – | – | –
6 | CC(=O)Nc1cccc(-n2c(=O)n(C3CC3)c(=O)c3c(Nc4ccc(I)cc4F)n(C)c(=O)c(C)c32)c1 [Trametinib] | – | 0.04 µM | 22.2 ng/mL | – | – | – | – | – | –
